Assay results taken from PubChem BioAssay AID1963964 (Molecular Pharmacology Branch, DTP, NCI, 2024).

Test system: 997726-040-R-J2-PDC tumor spheroids, viability
Assay: Anticancer human tumor 997726-040-R-J2-PDC patient-derived squamous cell lung carcinoma cell line growth inhibition [PI3K]
Details: spheroids with HUVEC and MSC; for IC50: curve of first compound; for viability, T/C: stronger effect = lower value
Procedure, shortened: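 Tumor cells were combined with HUVEC and MSCs into spheroids, then dosed with PI3K-inhibitor combinations over half-log ranges capped near clinical Cmax or 10 microM.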

[1] = second compound 0.0316 µM, first compound 0.000316 µM
[2] = second compound 0.0316 µM, first compound 0.001 µM
[3] = second compound 0.0316 µM, first compound 0.00316 µM
[4] = second compound 0.0316 µM, first compound 0.01 µM
[5] = second compound 0.0316 µM, first compound 0.0316 µM
[6] = second compound 0.0316 µM, first compound 0.1 µM
[7] = second compound 0.1 µM, first compound 0.000316 µM
[8] = second compound 0.1 µM, first compound 0.001 µM
[9] = second compound 0.1 µM, first compound 0.00316 µM
[10] = second compound 0.1 µM, first compound 0.01 µM
[11] = second compound 0.1 µM, first compound 0.0316 µM
[12] = second compound 0.1 µM, first compound 0.1 µM
[13] = second compound 0.316 µM, first compound 0.000316 µM
[14] = second compound 0.316 µM, first compound 0.001 µM
[15] = second compound 0.316 µM, first compound 0.00316 µM
[16] = second compound 0.316 µM, first compound 0.01 µM
[17] = second compound 0.316 µM, first compound 0.0316 µM
[18] = second compound 0.316 µM, first compound 0.1 µM
[19] = second compound 1 µM, first compound 0.000316 µM
[20] = second compound 1 µM, first compound 0.001 µM
[21] = second compound 1 µM, first compound 0.00316 µM
[22] = second compound 1 µM, first compound 0.01 µM
[23] = second compound 1 µM, first compound 0.0316 µM
[24] = second compound 1 µM, first compound 0.1 µM
[25] = second compound 3.16 µM, first compound 0.000316 µM
[26] = second compound 3.16 µM, first compound 0.001 µM
[27] = second compound 3.16 µM, first compound 0.00316 µM
[28] = second compound 3.16 µM, first compound 0.01 µM
[29] = second compound 3.16 µM, first compound 0.0316 µM
[30] = second compound 3.16 µM, first compound 0.1 µM
[31] = second compound 10 µM, first compound 0.000316 µM
[32] = second compound 10 µM, first compound 0.001 µM
[33] = second compound 10 µM, first compound 0.00316 µM
[34] = second compound 10 µM, first compound 0.01 µM
[35] = second compound 10 µM, first compound 0.0316 µM
[36] = second compound 10 µM, first compound 0.1 µM
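Note: spheroids exposed to compounds for seven days before readout.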

With `CC(=O)c1c(C)c2cnc(Nc3ccc(N4CCNCC4)cn3)nc2n(C2CCCC2)c1=O` + CC(Nc1ncnc2nc[nH]c12)c1cc2cccc(Cl)c2c(=O)n1-c1ccccc1 the IC50 (second compound 0.0316 µM) was > 100 nM, the IC50 (second compound 0.1 µM) was > 100 nM and the IC50 (second compound 0.316 µM) was > 100 nM. The IC50 (second compound 1 µM) was > 100 nM, the IC50 (second compound 3.16 µM) was > 100 nM and the IC50 (second compound 10 µM) was 10.6 nM. The viability, T/C [1] was 94%, the viability, T/C [2] was 109% and the viability, T/C [3] was 93.7%. For the same molecule, the viability, T/C [4] was 87.7%, the viability, T/C [5] was 86.1% and the viability, T/C [6] was 61.2%. For the same molecule, the viability, T/C [7] was 102%, the viability, T/C [8] was 94.8% and the viability, T/C [9] was 91.3%. It also gave a viability, T/C [10] of 96.6%, a viability, T/C [11] of 78.3% and a viability, T/C [12] of 65.5%. The viability, T/C [13] was 99.8%, the viability, T/C [14] was 96.7% and the viability, T/C [15] was 91.3%. It also gave a viability, T/C [16] of 83.5%, a viability, T/C [17] of 81.6% and a viability, T/C [18] of 57.3%. It also gave a viability, T/C [19] of 97.1%, a viability, T/C [20] of 85.7% and a viability, T/C [21] of 86.9%. It also gave a viability, T/C [22] of 74.1%, a viability, T/C [23] of 75.8% and a viability, T/C [24] of 53.3%. The viability, T/C [25] was 72.9%, the viability, T/C [26] was 71.7% and the viability, T/C [27] was 77.3%. For the same molecule, the viability, T/C [28] was 70.1%, the viability, T/C [29] was 58.4% and the viability, T/C [30] was 50.4%. The viability, T/C [31] was 53.9%, the viability, T/C [32] was 51.6% and the viability, T/C [33] was 56.9%. For the same molecule, the viability, T/C [34] was 50.4%, the viability, T/C [35] was 41.8% and the viability, T/C [36] was 43.4%.

`CC(C)n1nc(-c2ccc3oc(N)nc3c2)c2c(N)ncnc21` + CC(Nc1ncnc2nc[nH]c12)c1cc2cccc(Cl)c2c(=O)n1-c1ccccc1 gave an IC50 (second compound 0.0316 µM) of 23.4 nM, an IC50 (second compound 0.1 µM) of 25 nM and an IC50 (second compound 0.316 µM) of 23.9 nM. It also gave an IC50 (second compound 1 µM) of 20.8 nM, an IC50 (second compound 3.16 µM) of 6.14 nM and an IC50 (second compound 10 µM) of 2.51 nM. It also gave a viability, T/C [1] of 99.1%, a viability, T/C [2] of 89.6% and a viability, T/C [3] of 77.3%. The viability, T/C [4] was 62.1%, the viability, T/C [5] was 50% and the viability, T/C [6] was 18%. It also gave a viability, T/C [7] of 99.3%, a viability, T/C [8] of 88.2% and a viability, T/C [9] of 80.2%. For the same molecule, the viability, T/C [10] was 64%, the viability, T/C [11] was 48.6% and the viability, T/C [12] was 19.5%. For the same molecule, the viability, T/C [13] was 93.2%, the viability, T/C [14] was 90.7% and the viability, T/C [15] was 75.3%. The viability, T/C [16] was 62.8%, the viability, T/C [17] was 48.7% and the viability, T/C [18] was 17.4%. The viability, T/C [19] was 86.2%, the viability, T/C [20] was 83.1% and the viability, T/C [21] was 70.2%. For the same molecule, the viability, T/C [22] was 63.8%, the viability, T/C [23] was 43.4% and the viability, T/C [24] was 17%. For the same molecule, the viability, T/C [25] was 75.4%, the viability, T/C [26] was 65.2% and the viability, T/C [27] was 53.2%. It also gave a viability, T/C [28] of 45.4%, a viability, T/C [29] of 39.4% and a viability, T/C [30] of 16.7%. The viability, T/C [31] was 56.8%, the viability, T/C [32] was 51.4% and the viability, T/C [33] was 50%. It also gave a viability, T/C [34] of 41.8%, a viability, T/C [35] of 31.2% and a viability, T/C [36] of 11.9%.
